According to patent US8986676B2, “MNTF differentiation and growth of stem cells” (Genervon Biopharmaceuticals LLC, priority 2005, dated 2015):
Entries after “also recorded” stand apart in the source; their conditions may differ. Ends that are not written are not given here.

Legend:
[1] = test system: ES cell-derived motor neurons; test: Survival of ES cell-derived motor neurons in dissociated cultures; format: cell-based, mouse; settings: for maintaining dissociated cultures: dissociated ES-derived motor neuron cultures; for enhancement of survival of stem cell derived motor neurons: percentage survivability on day ten, FIG. 4
Description: Mouse embryonic stem (ES) cells were differentiated in the presence of RA and Hg-agonist (Curis, Inc.). On day four, the differentiated embryoid bodies were partially dissociated with 0.05% trypsin or Collagenase and Dispase (1 mg/ml in PBS) and plated on coverslips coated with PLL-Laminin and matrigel.
The dissociated cultures were then treated with GDNF (10 ng/ml), MNTF (all seven forms) at different doses (0.1 μg/ml, 1 μg/ml, 10 μg/ml and 50 μg/ml), and dbcAMP (1 μM), NT3 (10 μg/ml) at day five.
Neurons and their axons were identified by using the fluorescence produced by GFP expressed from the HB9 promoter. Neurite outgrowth can be quantified as described previously [Harper, J. M. et al. (2004) PNAS 101, 7123-7128, incorporated herein by reference] at day six, eight and ten. Percentage survivability was calculated on day ten by counting the total number of cells with existing axons.

[2] = test system: ES cells derived from an HB9-GFP-transgenic mouse; test: Differentiation of ES cells into motor neurons (eGFP under HB9 promoter in embryoid bodies); format: cell-based; settings: for expression of eGFP under the control of the HB9 promoter (green fluorescence of EBs) compared with RA and Shh agonist: EBs treated with RA (1 μM) and peptide; for differentiation of ES cells into motor neurons: in the presence of RA; for concentration at which elevated fluorescence was detectable (as low as) / concentration at which fluorescence appeared to be optimal: with RA; for concentration at which fluorescence appeared to be optimal: in this experiment
Description: ES cells were derived from an HB9-GFP-transgenic mouse and fluoresce green upon adoption of a motoneuron phenotype [Wichterle, H. et al. ([…]) Cell 110, 385-397, incorporated herein by reference]. The mouse ES cells were maintained in a proliferative and undifferentiated state in the presence of murine LIF (Chemicon). The ES cells were cultured on a feeder layer of primary mouse embryonic fibroblasts that were mitomycin treated.
Mouse ES cells were separated from the feeder layer of fibroblasts. This was done by trypsinizing and plating the cell mixture on cell culture flasks coated with 0.1% gelatin. The fibroblasts attached specifically on the gelatin leaving a pure population of floating ES cells. The floating ES cells were collected and resuspended in differentiating medium. This stage was called “d−1”. The ES cells formed embryoid bodies (EBs) and 24 hours later (“d0”) were exposed to RA (1 μM)+MNTF or RA (1 μM)+Shh agonist (1 μM). MNTF peptides (all six forms) were tested at a final concentration range of 0.1 μg/ml-150 μg/ml.
The differentiation assay was carried for six days from “d−1” stage.

[3] = test system: motor neuron derived cell lines; settings: compared with MNTF1-F6 33-mer; cited from earlier work
motor neurons = settings: in vivo, compared with MNTF1-F6 33-mer; cited from earlier work
IR/IGF1R [pYpY1162/1163] = test: Autophosphorylation of Insulin/IGF receptor(s), western blot of embryoid bodies; format: cell-based, mouse; settings: for autophosphorylation of IR/IGF-R (pTyr 1162/1163): RA (1 μM) + MNTF 33mer (10 μg/ml), FIG. 3
Description: Embryoid bodies (EBs) were exposed to RA (1 μM)+MNTF 33mer (10 μg/ml) or RA (1 μM)+MNTF 33mer (10 μg/ml)+/−HNMPA-(AM)3 (50 nM). Cells were harvested at 0, 15 min, 30 min, 1 h, 2 h and 4 h time points.
The cells were harvested as described previously [Barber, A. J. et al., (2001) J. Biol. Chem. 276, 32814-32821]. Protein concentrations were measured with the Pierce BCA reagent, and all samples were adjusted for equal protein before SDS-polyacrylamide gel electrophoresis.
Cell lysates were immunoblotted with polyclonal antibodies against phosphotyrosines 1162-1163 of IR/IGFR1 following the manufacturer's directions or standard techniques. Protein bands were detected by enhanced chemical fluorescence. Densitometric analysis of enhanced chemical fluorescence immunoblots was performed with ImageQuant (Molecular Dynamics, Sunnyvale, Calif.).

mouse ES cells [4] = test: Differentiation of ES cells in the presence of IR or IGF1-R inhibitor (GFP fluorescence of day 5 embryoid bodies); format: cell-based; settings: for effect of inhibitor on MNTF induced differentiation (GFP fluorescence): HNMPA(AM)3 15 μM or PPP 1 μM, RA/MNTF33 or RA/MNTF10, FIG. 6
mouse ES cells [5] = test: MNTF induced differentiation in the presence of Shh inhibitor (GFP fluorescence of embryoid bodies); format: cell-based; settings: inhibitor 5 μM, day 5; for effect of inhibitor on MNTF induced differentiation of ES cells: RA + MNTF 33mer at 10 μg/ul; for effect of inhibitor on the GFP fluorescence effect of Shh-Agonist: RA + Shh agonist
Description: The ES cells were differentiated as mentioned above and at day 0 they were treated with RA+Shh-Agonist; RA+Shh Agonist+Cyclopamine-KAAD (5 μM); RA+MNTF (33mer at 10 μg/ul); and RA+Cyclopamine-KAAD (5 μM)+MNTF (33mer at 10 μg/ul). The inhibitor was pretreated for an hour before the addition of the other components.
At day 5 of differentiation the embryoid bodies were checked for GFP fluoresence indicating the differentiation of the ES cells into a motor neuron phenotype.
Receptor kinase studies were used to measure the affinity of MNTF for the Insulin Receptor (IR). […] We then tested whether signals through either of these pathways are possible in generating motor neurons. […] Thus, MNTF is still capable of generating post-mitotic mature motor neurons.
FIG. 5 illustrates a comparison of the expression of GFP fluorescence under the control of the motor neuron specific HB9 promoter at day 5 of differentiation in response to control (A), RA (3); RA/Shh (C); cyclopamine-KAAD, RA/Shh (D); RA and MNTF 33mer (E); Cyclopamine-KAAD, RA and MNTF 33mer (F).

spinal cord hemi-section = settings: rats, MNTF1-containing gel sections near nerve graft junctions; cited from earlier work
surviving motor neurons = settings: axotomized rat peripheral nerves, versus untreated controls; cited from earlier work
[6] = test system: anterior horn motor neurons; settings: rat lumbar spinal cord explants; cited from earlier work
wobbler mice = settings: MNTF1-containing gel sections implanted at C7-T3 region; cited from earlier work

With “MLSAFSRYAR (Synthetic MNTF peptide analog) [10mer]” the maintaining dissociated cultures [1] was “effective at maintaining dissociated cultures up to 10 days”, the “enhancement of survival of stem cell derived motor neurons” value (from here on “enhancement”) [1] was “nearly as effective as the MNTF 33mer” and the “expression of eGFP under the control of the HB9 promoter (green fluorescence of EBs) compared with RA and Shh agonist” value ([2]; FIG. 2) was “to the same extent or greater than EBs treated with RA and Shh agonist”. For the same compound, the “differentiation of ES cells into motor neurons” value [2] was “effectively substitute for Sonic Hedgehog”, the “differentiation of ES cells into motor neurons” value ([2]; listed as MNTF 10-mer) was “capable of inducing differentiation of ES cells into differentiated motor neurons” and the “concentration at which differentiation is stimulated (as low as)” value ([2]; in vitro, FIG. 2) was 0.01 µg/mL. The “effectiveness at stimulating differentiation of embryonic stem cells into motor neurons compared with MNTF 33mer” value ([2]; in vitro, FIG. 2) was “at least as effective the full-length MNTF 33mer”, the concentration at which elevated fluorescence was detectable (as low as) ([2]; FIG. 2) was 0.1 µg/mL and the “concentration at which fluorescence appeared to be optimal” value [2] was “about 10 μg/ml”.

For FSRYAR [6mer], the “enhancement” value [1] is listed as “sufficient to enhance survival of stem cell derived motor neurons”, the “proliferation of motor neuron derived cell lines” value [3] is listed as “sufficient to stimulate the proliferation of motor neuron derived cell lines” and the “selective reinnervation of muscle targets by motor neurons” value (motor neurons) is listed as “sufficient to direct selective reinnervation of muscle targets”.

In the case of “MLSAFSRYARCLAEGHDGPTQ (CWMLSAFSRYARC; Synthetic MNTF peptide sequence) [21mer]”, the “enhancement” value [1] is reported as “sufficient to enhance survival of stem cell derived motor neurons”.

For `CC(=O)OCOC(c1ccc2ccccc2c1)P(=O)(OCOC(C)=O)OCOC(C)=O` (stereo not drawn) [HNMPA-(AM)3, Hydroxy-2-naphthalenylmethylphosphonic acid trisacetoxymethyl ester], the “effect of IR inhibitor on autophosphorylation of IR/IGF-R in MNTF 33mer treated cells” value (IR/IGF1R [pYpY1162/1163]; HNMPA-(AM)3 50 nM with RA + MNTF 33mer (10 μg/ml)) was “reduced autophosphorylation within 15 min”, the “effect of inhibitor on MNTF induced differentiation (GFP fluorescence)” value (mouse ES cells [4]) was “blocks the effect of MNTF on mouse ES cells” and the “effect of inhibitor on Shh induced differentiation (GFP fluorescence)” value (mouse ES cells [4]; HNMPA(AM)3 15 μM, FIG. 6) was “did not block the activity of Shh induced differentiation”.

For “3-keto-N-(aminoethyl-aminocaproyl-dihydrocinnamoyl)cyclopamine [Cyclopamine-KAAD]”, the “effect of inhibitor on MNTF induced differentiation of ES cells” value (mouse ES cells [5]) was “did not block MNTF induced differentiation of ES cells”, the “effect of inhibitor on MNTF induced differentiation of ES cells” value (mouse ES cells [5]; listed as cyclopamine-KAAD) was “did not block the activity of MNTF induced differentiation” and the “effect of inhibitor on the GFP fluorescence effect of Shh-Agonist” value (mouse ES cells [5]) was “blocked the GFP fluoresence effect of Shh-Agonist”. For the same compound, the “effect of inhibitor on the GFP fluorescence effect of Shh-Agonist” value (mouse ES cells [5]; listed as cyclopamine-KAAD) was “blocks the effect of Shh on mouse ES cells”.

With “FSRYARCLAEG (Synthetic MNTF peptide analog) [11mer]” the “enhancement” value [1] was “sufficient to enhance survival of stem cell derived motor neurons”.

In the case of `COc1cc([C@@H]2c3cc4c(cc3[C@H](O)[C@H]3COC(=O)[C@@H]23)OCO4)cc(OC)c1OC` [picrodophyllin], the “effect of inhibitor on MNTF induced differentiation (GFP fluorescence)” value (mouse ES cells [4]) is reported as “does not effectively block the activity of MNTF induced differentiation”.

In the case of “MNTF1: naturally occurring and recombinant motoneuronotrophic factor 1 polypeptides; in b137 the word stands for the synthetic 33-mer (LGTFWGDTLNCWMLSAFSRYARCLAEGHDGPTQ)”, the “surviving motor neurons and functional recovery” value (spinal cord hemi-section) is given as “greater numbers of surviving motor neurons, improved recovery of motor and sensory function”, the “percentage of surviving motor neurons” value (surviving motor neurons) is given as “markedly higher percentage of surviving motor neurons than untreated controls” and the “survival in vitro of anterior horn motor neurons” value [6] is given as “selectively enhance the survival”. For the same compound, the progression of symptoms (wobbler mice) was “delayed the progression of symptoms in wobbler mice”.

For WMLSAFS [7mer], the “enhancement” value [1] is given as “sufficient to enhance survival of stem cell derived motor neurons” and the “proliferation of motor neuron derived cell lines” value [3] is given as “sufficient to stimulate the proliferation of motor neuron derived cell lines”.

In the case of “33mer: 33 amino acid MNTF1-F6 sequence (SEQ ID NO:1), synthesized by solid phase synthesis (LGTFWGDTLNCWMLSAFSRYARCLAEGHDGPTQ)”, the maintaining dissociated cultures [1] is reported as “effective at maintaining dissociated cultures up to 10 days”, the “autophosphorylation of IR/IGF-R (pTyr 1162/1163)” value (IR/IGF1R [pYpY1162/1163]) is reported as “autophosphorylation of IR/IGF-R” and the “autophosphorylation of IR/IGF-R (pTyr 1162/1163)” value (IR/IGF1R [pYpY1162/1163]; listed as MNTF1 33-mer) is reported as “associated with autophosphorylation of the insulin receptor (IR) and/or insulin-like growth factor receptor (IGF-R)”. For the same compound, the “expression of eGFP under the control of the HB9 promoter (green fluorescence of EBs) compared with RA and Shh agonist” value ([2]; FIG. 2) was “to the same extent or greater than EBs treated with RA and Shh agonist”, the “differentiation of ES cells into motor neurons” value [2] was “effectively substitute for Sonic Hedgehog” and the “differentiation of ES cells into motor neurons” value ([2]; listed as 33-mer) was “induced differentiation of ES cells into motor neurons; also recorded: capable of inducing differentiation of ES cells into differentiated motor neurons”. The concentration at which elevated fluorescence was detectable (as low as) ([2]; FIG. 2) was 0.1 µg/mL and the “concentration at which fluorescence appeared to be optimal” value [2] was “about 10 μg/ml”.
